Key:
[1] = tested on: brain; assay: Maturation of TTM-002 capsid, NGS enrichment in brain of CD-1 Outbred mice; assay type: in vivo; conditions: NGS fold-enrichment in the brain of CD-1 Outbred mice; intravenous, 1.0×10^12 VG/dose, 14 days; RNA; relative to non-matured TTM-002 control
Description: This Example describes maturation of the TTM-001 (SEQ ID NO: 981 (amino acid) and 983 (DNA), comprising SEQ ID NO: 941) and TTM-002 (SEQ ID NO: 982 (amino acid) and 984 (DNA), comprising SEQ ID NO: 2) capsid variants to further enhance their transduction and biodistribution in the central nervous system and evolve the AAV capsid variants to provide further cross-species compatibility. Two approaches were used to mature the TTM-001 and TTM-002 capsid sequences in order to randomize and mutate within and around the peptide insert comprised within loop IV of the capsid variant. […] In the first maturation approach, sets of three contiguous amino acids were randomized across the mutagenesis region in the TTM-001 and TTM-002 sequences, which spanned from position 450 to position 466, numbered according to SEQ ID NO: 981 and 982. In the second maturation approach, mutagenic primers were used to introduce point mutations at a low frequency, scattered across the mutagenesis region in the TTM-001 and TTM-002 sequences ranging from position 449 to position 466, numbered according to SEQ ID NO: 981 and 982. AAV capsid variants arising from each maturation approach for TTM-001 were pooled together and AAV capsid variants arising from each maturation approach for TTM-002 were also pooled together, for subsequent testing and characterization in mice.
The library of pooled matured AAV capsid variants generated from TTM-001 or library of pooled matured AAV capsid variants generated from the TTM-002 matured AAV capsid variant each were intravenously injected into the tail vein of three female CD-1 Outbred mice (Charles River) at a dose of 1.0×10^12 VG/dose. After 14-days in life, the brains of the mice were isolated and RNA was extracted. Following RNA recovery and RT-PCR amplification, a systematic NGS enrichment analysis was performed to calculate the fold enrichment ratio relative to the corresponding TTM-001 or TTM-002 control, and the peptides comprised within the variants were identified. The data for the TTM-001 matured capsid variants is provided in Table 13 and the data for the TTM-002 matured capsid variants is provided in Table 14.

[2] = tested on: brains, heart, liver, muscle, and DRG of the NHPs; assay: Maturation of TTM-001 and TTM-002 capsids, NGS enrichment in NHP tissues; assay type: in vivo; conditions: relative to AAV9 control
How it was run: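 Variants carry mutations within and flanking the loop IV peptide insert: positions 450–466 were triplet-randomized, while positions 449–466 received low-frequency point mutations. The combined pool went into two NHPs, and each peptide was scored by NGS enrichment ratio against AAV9.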

[3] = tested on: brain; assay: Matured TTM-001 and TTM-002 variants, NGS enrichment in mouse brain; assay type: in vivo, mice; conditions: relative to AAV9 control
[4] = NGS fold-enrichment of matured AAV capsid variants, NHP brain, RNA
[5] = NGS fold-enrichment, DRG of NHPs
[6] = NGS fold-enrichment, RNA, brain of NHPs
[7] = NGS fold-enrichment, heart of NHPs
[8] = NGS fold-enrichment, liver DNA of NHPs
[9] = NGS fold-enrichment, liver RNA of NHPs
[10] = NGS fold-enrichment, muscle of NHPs
[11] = NGS fold-enrichment, brain of mice
[12] = NGS fold-enrichment of RNA, NHP brain
[13] = NGS fold-enrichment, NHP liver DNA
[14] = NGS fold-enrichment, NHP liver RNA
[15] = NGS fold-enrichment, NHP muscle
[16] = NGS fold-enrichment, mouse brain

KADWGHDSPHKSGQNQQT
Fold enrichment over TTM-002 [1]: 2.32

KQQQGHDSPHKSGQNQQT
Fold enrichment over TTM-002 [1]: 2.01

KANNGQDSPHKSGQNQQT
Fold enrichment over TTM-002 [1]: 2.67

KMESGHDSPHKSGQNQQT
Fold enrichment over TTM-002 [1]: 2.18

KTINGHDSPHKSAQNQWT
Fold enrichment over TTM-002 [1]: 2.07

KADQGHDSPHKSGQNQQT
Fold enrichment over TTM-002 [1]: 2.07

KIETGHDSPHKSGQNQQT
Fold enrichment over TTM-002 [1]: 2.38

KMEYGHDSPHKSGQNQQT
Fold enrichment over TTM-002 [1]: 2.71

KLEWGHDSPHKSGQNQQT
Fold enrichment over TTM-002 [1]: 2.14

KTINGHDSPHVIDQNQQT (KTINGHDSPHVTDQNQQT)
Fold enrichment over TTM-002 [1]: 5.20

KIEGGHDSPHKSGQNQQT
Fold enrichment over TTM-002 [1]: 2.00

KDIMGHDSPHKSGQNQQT
Fold enrichment over TTM-002 [1]: 2.23

KMEFGHDSPHKSGQNQQT
Fold enrichment over TTM-002 [1]: 2.21

KTINGNYSPHKIGQNQQT
Fold enrichment over TTM-002 [1]: 2.02

KCEYGHDSPHKSGQNQQT
Fold enrichment over TTM-002 [1]: 2.36

KTINGHYSPHLFGQNQQT
Fold enrichment over TTM-002 [1]: 2.02

KTINGHLSPHYFGQNQQT
Fold enrichment over TTM-002 [1]: 2.41

KMEAGHDSPHKSGQNQQT
Fold enrichment over TTM-002 [1]: 2.12

KIEMGHDSPHKSGQNQQT
Fold enrichment over TTM-002 [1]: 2.05

KCEWGHDSPHKSGQNQQT
Fold enrichment over TTM-002 [1]: 2.68

KIEVGHDSPHKSGQNQQT
Fold enrichment over TTM-002 [1]: 2.16

KTINGHDSPHWLLQNQQT
Fold enrichment over TTM-002 [1]: 2.37

KIEIGHDSPHKSGQNQQT
Fold enrichment over TTM-002 [1]: 2.30

KTINGHSSPHYFGQNQQT
Fold enrichment over TTM-002 [1]: 2.05

KTINGHESPHKSAQNHQT
Fold enrichment over TTM-002 [1]: 2.07

KTANEHDSPHKSGQNQQT
Fold enrichment over TTM-002 [1]: 2.05

KRINGHDSPHKSGQKQQN
Fold enrichment over TTM-002 [1]: 2.34

KADMGHDSPHKSGQNQQT
Fold enrichment over TTM-002 [1]: 2.48

KTSNGDDSPHKSGRNQQT
Fold enrichment over TTM-002 [1]: 2.17

KSEKGSGSPHSKAQNQQT
Fold Enrichment relative to AAV9, Brain (NHP) [2, 4]: 58.566 fold | Fold Enrichment relative to AAV9, DRG (NHP) ([2]; NHP DRG): 0.000 fold | Fold Enrichment relative to AAV9, Heart (NHP) ([2]; NHP heart): 0.010 fold | Fold Enrichment relative to AAV9, Liver DNA (NHP) ([2]; NHP liver, DNA): 0.059 fold | Fold Enrichment relative to AAV9, Liver RNA (NHP) ([2]; NHP liver, RNA): 1.601 fold | Fold Enrichment relative to AAV9, Muscle (NHP) ([2]; NHP muscle): 0.011 fold | Fold Enrichment relative to AAV9, Brain (Mouse) ([3]; mouse brain): 158.931 fold

KTINGSGSPHSKAQSQQL
Fold Enrichment relative to AAV9, DRG (NHP) [2, 5]: 0.000 fold | Fold Enrichment relative to AAV9, Brain (NHP) [2, 6]: 70.539 fold | Fold Enrichment relative to AAV9, Heart (NHP) [2, 7]: 0.000 fold | Fold Enrichment relative to AAV9, Liver DNA (NHP) [2, 8]: 0.041 fold | Fold Enrichment relative to AAV9, Liver RNA (NHP) [2, 9]: 0.000 fold | Fold Enrichment relative to AAV9, Muscle (NHP) [2, 10]: 0.000 fold | Fold Enrichment relative to AAV9, Brain (Mouse) [3, 11]: 51.126 fold

KTINGYDSPHKSGQYQHT
Fold Enrichment relative to AAV9, Brain (NHP) [2, 12]: 81.534 fold | Fold Enrichment relative to AAV9, DRG (NHP) ([2]; NGS fold-enrichment, NHP DRG): 0.000 fold | Fold Enrichment relative to AAV9, Heart (NHP) ([2]; NGS fold-enrichment, NHP heart): 0.036 fold | Fold Enrichment relative to AAV9, Liver DNA (NHP) [2, 13]: 0.000 fold | Fold Enrichment relative to AAV9, Liver RNA (NHP) [2, 14]: 0.000 fold | Fold Enrichment relative to AAV9, Muscle (NHP) [2, 15]: 0.000 fold | Fold Enrichment relative to AAV9, Brain (Mouse) [3, 16]: 10.524 fold

KTIDGSGSPHSKSQNHQT
Fold Enrichment relative to AAV9, Brain (NHP) [2, 4]: 51.307 fold | Fold Enrichment relative to AAV9, DRG (NHP) ([2]; NHP DRG): 0.000 fold | Fold Enrichment relative to AAV9, Heart (NHP) ([2]; NHP heart): 0.000 fold | Fold Enrichment relative to AAV9, Liver DNA (NHP) ([2]; NHP liver, DNA): 0.269 fold | Fold Enrichment relative to AAV9, Liver RNA (NHP) ([2]; NHP liver, RNA): 0.000 fold | Fold Enrichment relative to AAV9, Muscle (NHP) ([2]; NHP muscle): 0.000 fold | Fold Enrichment relative to AAV9, Brain (Mouse) ([3]; mouse brain): 63.174 fold

KTENGSASPHSKALNQQT (KTFNGSASPHSKALNQQT)
Fold Enrichment relative to AAV9, Brain (NHP) [2, 12]: 84.258 fold | Fold Enrichment relative to AAV9, DRG (NHP) ([2]; NGS fold-enrichment, NHP DRG): 0.000 fold | Fold Enrichment relative to AAV9, Heart (NHP) ([2]; NGS fold-enrichment, NHP heart): 0.122 fold | Fold Enrichment relative to AAV9, Liver DNA (NHP) [2, 13]: 0.037 fold | Fold Enrichment relative to AAV9, Liver RNA (NHP) [2, 14]: 0.104 fold | Fold Enrichment relative to AAV9, Muscle (NHP) [2, 15]: 0.000 fold | Fold Enrichment relative to AAV9, Brain (Mouse) [3, 16]: 31.855 fold

KTIDGSGSPHSKALNKQT
Fold Enrichment relative to AAV9, Brain (NHP) [2, 4]: 58.992 fold | Fold Enrichment relative to AAV9, DRG (NHP) ([2]; NHP DRG): 0.000 fold | Fold Enrichment relative to AAV9, Heart (NHP) ([2]; NHP heart): 0.267 fold | Fold Enrichment relative to AAV9, Liver DNA (NHP) ([2]; NHP liver, DNA): 0.056 fold | Fold Enrichment relative to AAV9, Liver RNA (NHP) ([2]; NHP liver, RNA): 0.000 fold | Fold Enrichment relative to AAV9, Muscle (NHP) ([2]; NHP muscle): 0.000 fold | Fold Enrichment relative to AAV9, Brain (Mouse) ([3]; mouse brain): 74.626 fold

KTSYGNGSPHSKAQNQQT
Fold Enrichment relative to AAV9, Brain (NHP) [2, 12]: 105.937 fold | Fold Enrichment relative to AAV9, DRG (NHP) [2, 5]: 0.000 fold | Fold Enrichment relative to AAV9, DRG (NHP) ([2]; NGS fold-enrichment, NHP DRG): 0.000 fold | Fold Enrichment relative to AAV9, Heart (NHP) ([2]; NGS fold-enrichment, NHP heart): 0.000 fold | Fold Enrichment relative to AAV9, Liver DNA (NHP) [2, 13]: 0.114 fold | Fold Enrichment relative to AAV9, Liver RNA (NHP) [2, 14]: 0.000 fold | Fold Enrichment relative to AAV9, Muscle (NHP) [2, 15]: 0.000 fold | Fold Enrichment relative to AAV9, Brain (NHP) [2, 6]: 105.937 fold | Fold Enrichment relative to AAV9, Heart (NHP) [2, 7]: 0.000 fold | Fold Enrichment relative to AAV9, Liver DNA (NHP) [2, 8]: 0.114 fold | Fold Enrichment relative to AAV9, Liver RNA (NHP) [2, 9]: 0.000 fold | Fold Enrichment relative to AAV9, Muscle (NHP) [2, 10]: 0.000 fold | Fold Enrichment relative to AAV9, Brain (Mouse) [3, 11]: 105.894 fold | Fold Enrichment relative to AAV9, Brain (Mouse) [3, 16]: 105.894 fold

KTINGHESPHKSGQTQQI
Fold Enrichment relative to AAV9, Brain (NHP) [2, 12]: 86.089 fold | Fold Enrichment relative to AAV9, DRG (NHP) ([2]; NGS fold-enrichment, NHP DRG): 0.000 fold | Fold Enrichment relative to AAV9, Heart (NHP) ([2]; NGS fold-enrichment, NHP heart): 0.222 fold | Fold Enrichment relative to AAV9, Liver DNA (NHP) [2, 13]: 0.024 fold | Fold Enrichment relative to AAV9, Liver RNA (NHP) [2, 14]: 0.000 fold | Fold Enrichment relative to AAV9, Muscle (NHP) [2, 15]: 0.000 fold | Fold Enrichment relative to AAV9, Brain (Mouse) [3, 16]: 3.989 fold

KTINGSGSPHSKAQPLGT
Fold Enrichment relative to AAV9, Brain (NHP) [2, 4]: 53.049 fold | Fold Enrichment relative to AAV9, DRG (NHP) ([2]; NHP DRG): 0.015 fold | Fold Enrichment relative to AAV9, Heart (NHP) ([2]; NHP heart): 0.004 fold | Fold Enrichment relative to AAV9, Liver DNA (NHP) ([2]; NHP liver, DNA): 0.222 fold | Fold Enrichment relative to AAV9, Liver RNA (NHP) ([2]; NHP liver, RNA): 0.515 fold | Fold Enrichment relative to AAV9, Muscle (NHP) ([2]; NHP muscle): 0.001 fold | Fold Enrichment relative to AAV9, Brain (Mouse) ([3]; mouse brain): 68.656 fold

KTVNGHDSPHKSGQNLLT
Fold Enrichment relative to AAV9, Brain (NHP) [2, 12]: 83.969 fold | Fold Enrichment relative to AAV9, DRG (NHP) ([2]; NGS fold-enrichment, NHP DRG): 0.114 fold | Fold Enrichment relative to AAV9, Heart (NHP) ([2]; NGS fold-enrichment, NHP heart): 0.040 fold | Fold Enrichment relative to AAV9, Liver DNA (NHP) [2, 13]: 0.035 fold | Fold Enrichment relative to AAV9, Liver RNA (NHP) [2, 14]: 0.000 fold | Fold Enrichment relative to AAV9, Muscle (NHP) [2, 15]: 0.023 fold | Fold Enrichment relative to AAV9, Brain (Mouse) [3, 16]: 18.894 fold

— patent US20260250318A1, “COMPOSITIONS AND METHODS FOR CROSSING THE BLOOD BRAIN BARRIER” (VOYAGER THERAPEUTICS, INC., priority 2022, published 2026)
